In US20080044538A1, “Method For Pigment Solubilization, A pigment Composition And Its Use” (AKZO NOBEL N.V., priority 2004, published 2008):

Experiment: Solubilization of pigment from Lucantin Pink CWD into oil with water and surfactant; absorbance of filtered oil-phase
Settings: type A, mix 3 g, surfactant 2 g, Tobis fish-oil 35 g; for Absorbance at 474 nm after 1.5 days in refrigerator and filtration: 0.200 ml diluted to 10 ml

Substance: Sorbitan monostearate
- % recov. after 1.5 days in refrigerator and filtration: (30.7) %
- Absorbance at 474 nm after 1.5 days in refrigerator and filtration: 0.174

Substance: sorbitan monooleate [Sorbitan ester monooleate]
- % recov. after 1.5 days in refrigerator and filtration: (27.4) %
- Absorbance at 474 nm after 1.5 days in refrigerator and filtration: 0.157
